The results in this text go back to ChEMBL document CHEMBL1909046, “DrugMatrix in vitro pharmacology data”.

Broadly, the IC50 is the concentration at which inhibition is half-maximal. By Ki is commonly meant a measure of affinity in units of concentration, obtained from inhibition or displacement.

Series [1] concerns the target Voltage-gated inwardly rectifying potassium channel KCNH2 (Homo sapiens, UniProt Q12809). The following applies: hek293. Note: in other assays of this panel Not Active means under 50% inhibition at 10 µM.
The target of a further series is T1, Progesterone receptor (Bos taurus, UniProt Q690N0).
T1 sequence (Q690N0 whole entry): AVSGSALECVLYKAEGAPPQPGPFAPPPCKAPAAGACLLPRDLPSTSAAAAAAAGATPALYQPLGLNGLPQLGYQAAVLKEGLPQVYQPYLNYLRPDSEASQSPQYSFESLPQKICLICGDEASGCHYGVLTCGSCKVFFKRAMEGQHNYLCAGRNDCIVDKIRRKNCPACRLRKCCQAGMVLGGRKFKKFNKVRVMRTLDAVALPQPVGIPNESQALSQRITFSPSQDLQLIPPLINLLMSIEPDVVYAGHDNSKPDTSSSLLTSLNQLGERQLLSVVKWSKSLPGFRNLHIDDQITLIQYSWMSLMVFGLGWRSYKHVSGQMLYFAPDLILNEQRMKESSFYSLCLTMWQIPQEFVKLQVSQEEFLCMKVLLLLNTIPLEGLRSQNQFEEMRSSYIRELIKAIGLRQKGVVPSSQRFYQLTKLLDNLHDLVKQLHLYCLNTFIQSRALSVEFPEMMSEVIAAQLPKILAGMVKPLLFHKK
As to the kind of experiment: DRUGMATRIX: Progesterone radioligand binding (ligand: [3H] R-5020). The series is classed as tissue-based, Uterus. Conditions: Not Active = under 50% inhibition at 10 µM.

The nature of series [2]: DRUGMATRIX: Sigma2 radioligand binding (ligand: [3H] Ifenprodil). The series is classed as cell membranes, Rattus norvegicus, Wistar, Brain, Membrane. The following applies: Not Active = under 50% inhibition at 10 µM.
For series [3], the target named is C-C chemokine receptor type 2 (Homo sapiens, UniProt P41597). The series is classed as cell membranes, CHO-K1, Membrane. Conditions: cho-k1. Note: in other assays of this panel Not Active means under 50% inhibition at 10 µM.
Series [4] is described as follows: DRUGMATRIX: Imidazoline I2, Central radioligand binding (ligand: [3H] Idazoxan). Conditions: Not Active = under 50% inhibition at 10 µM. The series is classed as cell membranes, Rattus norvegicus, Wistar, Cerebral cortex, Membrane.
In a further series the target is Cytochrome P450 3A4 (Homo sapiens, UniProt P08684). The following applies: bti-tn-5b1-4. Note: in other assays of this panel Not Active means under 50% inhibition at 10 µM.
Chain of Cytochrome P450 3A4 (P08684 whole entry): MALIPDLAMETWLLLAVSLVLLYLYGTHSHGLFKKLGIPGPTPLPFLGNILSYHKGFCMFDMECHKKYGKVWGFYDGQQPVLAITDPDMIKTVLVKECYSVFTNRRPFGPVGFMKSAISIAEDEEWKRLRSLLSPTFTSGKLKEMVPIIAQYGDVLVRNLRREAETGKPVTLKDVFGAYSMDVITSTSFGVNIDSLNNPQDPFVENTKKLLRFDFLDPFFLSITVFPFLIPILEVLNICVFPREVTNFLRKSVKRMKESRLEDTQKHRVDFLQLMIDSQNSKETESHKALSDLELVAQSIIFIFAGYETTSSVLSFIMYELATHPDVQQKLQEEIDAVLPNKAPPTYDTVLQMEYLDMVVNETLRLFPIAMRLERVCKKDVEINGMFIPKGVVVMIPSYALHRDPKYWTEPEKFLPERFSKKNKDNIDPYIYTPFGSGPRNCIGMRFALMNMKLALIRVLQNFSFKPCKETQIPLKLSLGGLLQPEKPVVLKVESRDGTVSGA

Chain of C-C chemokine receptor type 2 (P41597 whole entry): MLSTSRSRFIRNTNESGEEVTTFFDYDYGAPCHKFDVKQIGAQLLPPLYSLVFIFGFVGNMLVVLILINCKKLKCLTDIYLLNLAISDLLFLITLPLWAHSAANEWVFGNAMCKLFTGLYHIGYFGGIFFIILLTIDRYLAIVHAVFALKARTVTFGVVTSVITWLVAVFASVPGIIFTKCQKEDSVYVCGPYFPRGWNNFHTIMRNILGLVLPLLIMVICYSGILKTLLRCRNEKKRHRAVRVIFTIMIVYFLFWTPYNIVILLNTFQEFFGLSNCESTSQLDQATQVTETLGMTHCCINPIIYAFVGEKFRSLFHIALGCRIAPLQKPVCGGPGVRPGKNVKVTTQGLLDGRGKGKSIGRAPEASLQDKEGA
Chain of Voltage-gated inwardly rectifying potassium channel KCNH2 (Q12809 whole entry): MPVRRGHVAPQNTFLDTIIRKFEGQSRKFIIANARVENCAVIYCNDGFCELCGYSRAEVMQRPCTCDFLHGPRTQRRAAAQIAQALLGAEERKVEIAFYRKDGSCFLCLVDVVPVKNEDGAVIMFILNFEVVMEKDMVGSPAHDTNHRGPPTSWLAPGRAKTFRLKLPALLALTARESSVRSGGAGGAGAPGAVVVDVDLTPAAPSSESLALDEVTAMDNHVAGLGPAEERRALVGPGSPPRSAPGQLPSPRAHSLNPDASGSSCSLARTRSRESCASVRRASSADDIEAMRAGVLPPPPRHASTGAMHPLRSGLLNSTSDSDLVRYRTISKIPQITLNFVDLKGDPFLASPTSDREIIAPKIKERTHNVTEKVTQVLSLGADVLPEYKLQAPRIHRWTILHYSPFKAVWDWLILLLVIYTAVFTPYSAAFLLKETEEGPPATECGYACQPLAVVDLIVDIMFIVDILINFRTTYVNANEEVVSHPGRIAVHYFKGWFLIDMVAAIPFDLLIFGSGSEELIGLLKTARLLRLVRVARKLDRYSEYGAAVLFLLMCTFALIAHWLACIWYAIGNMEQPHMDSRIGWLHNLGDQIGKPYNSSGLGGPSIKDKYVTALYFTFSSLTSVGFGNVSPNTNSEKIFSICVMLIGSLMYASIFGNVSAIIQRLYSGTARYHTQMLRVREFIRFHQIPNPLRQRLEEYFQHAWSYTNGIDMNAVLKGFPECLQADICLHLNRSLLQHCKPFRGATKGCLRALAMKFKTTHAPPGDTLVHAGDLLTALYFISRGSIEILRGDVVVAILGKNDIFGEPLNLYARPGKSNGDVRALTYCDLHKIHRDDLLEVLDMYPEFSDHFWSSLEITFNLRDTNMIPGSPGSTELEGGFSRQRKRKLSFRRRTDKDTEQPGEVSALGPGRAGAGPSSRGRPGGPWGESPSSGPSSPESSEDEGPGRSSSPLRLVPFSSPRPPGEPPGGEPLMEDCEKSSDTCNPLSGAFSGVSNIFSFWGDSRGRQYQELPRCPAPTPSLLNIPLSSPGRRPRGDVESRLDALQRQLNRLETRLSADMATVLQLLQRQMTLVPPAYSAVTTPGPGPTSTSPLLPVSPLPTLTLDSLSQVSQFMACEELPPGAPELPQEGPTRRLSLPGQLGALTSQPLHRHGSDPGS

Consider `Nn1nnc2ccccc21`, for which the IC50 result (in series [1]; at Progesterone receptor; in series [2]; in series [3]; in series [4]; against Cytochrome P450 3A4) was “Not Active” each time. Further, the Ki entry (in series [1]; in series [2]; in series [4]; at Cytochrome P450 3A4) was “Not Active” throughout.
`CC[C@]1(O)CC[C@H]2[C@@H]3CCC4=CCCC[C@@H]4[C@H]3CC[C@@]21C`: the IC50 entry is “Not Active” in series [1]; 201 nM on Progesterone receptor (read-out: IC50); “Not Active” in series [2]; “Not Active” in series [3]; “Not Active” in series [4]; “Not Active” against Cytochrome P450 3A4. Besides, the inhibition constant (Ki) entry was “Not Active” in series [1]; 26 nM at Progesterone receptor (read-out: Ki); “Not Active” in series [2]; “Not Active” in series [4]; “Not Active” at Cytochrome P450 3A4.
Turning to `N[C@@H](Cc1ccc(F)cc1)C(=O)O`, the half-inhibitory concentration (IC50) result (in series [1]; on Progesterone receptor; in series [2]; in series [3]; in series [4]) was “Not Active” in each case. Besides, the inhibition constant Ki result in series [1], in series [2] and in series [4] was “Not Active” each time.
Take `CCOC(=O)[C@H](CCc1ccccc1)N[C@@H](C)C(=O)N1Cc2ccccc2C[C@H]1C(=O)O`: the IC50 result (in series [1]; at Progesterone receptor; in series [2]; in series [3]; in series [4]; against Cytochrome P450 3A4) was “Not Active” each time. The inhibition constant Ki entry (in series [1]; in series [2]; in series [4]; at Cytochrome P450 3A4) was “Not Active” each time.
In the case of `O=C(c1ccccc1Cl)N1CCC(Cc2ccccc2)CC1`, the half-inhibitory concentration (IC50) result (in series [1]; at Progesterone receptor; in series [2]; in series [3]; in series [4]; against Cytochrome P450 3A4) was “Not Active” in each case. Also, the Ki result (in series [1]; in series [2]; in series [4]; on Cytochrome P450 3A4) was “Not Active” throughout.
Take `CCOC(=O)[C@H](CCc1ccccc1)N[C@@H](C)C(=O)N1CCC[C@H]1C(=O)O`: the IC50 result (in series [1]; in series [2]; in series [3]; in series [4]; at Cytochrome P450 3A4) was “Not Active” throughout. The Ki result (in series [1]; in series [2]; in series [4]; on Cytochrome P450 3A4) was “Not Active” throughout.
Turning to `Clc1cc2c(cc1Cl)Oc1cc(Cl)c(Cl)cc1O2` [2,3,7,8-TETRACHLORODIBENZO-P-DIOXIN], the half-maximal inhibitory concentration (IC50) result (in series [1]; at Progesterone receptor; in series [2]; in series [3]; in series [4]; against Cytochrome P450 3A4) was “Not Active” in each case. In addition, the Ki result (in series [1]; in series [2]; in series [4]; at Cytochrome P450 3A4) was “Not Active” throughout.
With `C[C@@H]1CC[C@H]2[C@@H](C)C(=O)O[C@@H]3O[C@@]4(C)CC[C@@H]1[C@]32OO4` [ARTEMISININ], the IC50 entry (in series [1]; at Progesterone receptor; in series [2]; in series [3]; in series [4]) was “Not Active” throughout. Besides, the Ki entry in series [1], in series [2] and in series [4] was “Not Active” in each case.
Take `CC[C@H]1OC(=O)[C@H](C)[C@@H](O[C@H]2C[C@@](C)(OC)[C@@H](O)[C@H](C)O2)[C@H](C)[C@@H](O[C@@H]2O[C@H](C)C[C@H](N(C)C)[C@H]2O)[C@](C)(O)C[C@@H](C)CN(C)[C@H](C)[C@@H](O)[C@]1(C)O` [AZITHROMYCIN]: the half-inhibitory concentration (IC50) result (in series [1]; on Progesterone receptor; in series [2]; in series [3]; in series [4]) was “Not Active” throughout. Further, the Ki entry in series [1], in series [2] and in series [4] was “Not Active” throughout.
As to `CC(C)C[C@H]1C(=O)N2CCC[C@H]2[C@]2(O)O[C@](NC(=O)[C@@H]3C=C4c5cccc6[nH]c(Br)c(c56)C[C@H]4N(C)C3)(C(C)C)C(=O)N12` [BROMOCRIPTINE], the IC50 entry in series [1] was “Not Active”; at Progesterone receptor, “Not Active”; in series [2], “Not Active”; in series [3], “Not Active”; in series [4] (read-out: IC50) it was 53 nM. Besides, the values for the inhibitory constant (Ki) entry in series [1], in series [2] and in series [4] (read-out: Ki) were “Not Active”, “Not Active” and 35 nM, respectively.
As for `CCC[C@@H]1C[C@@H](C(=O)N[C@@H]([C@H]2O[C@H](SC)[C@H](O)[C@@H](O)[C@H]2O)[C@H](C)Cl)N(C)C1` [CLINDAMYCIN], the 50% inhibitory concentration (IC50) entry (on Progesterone receptor; in series [2]; in series [3]; in series [4]) was “Not Active” throughout. In addition, the inhibitory constant (Ki) entry in series [2] and in series [4] was “Not Active” in each case.
Consider `CN1C(=O)CN=C(c2ccccc2)c2cc(Cl)ccc21` [DIAZEPAM], for which the concentration for half-maximal inhibition (IC50) entry (on Progesterone receptor; in series [2]; in series [3]; in series [4]) was “Not Active” throughout. For the same compound, the Ki result in series [2] and in series [4] was “Not Active” each time.
As to `CN1C[C@H](C(=O)N[C@]2(C)O[C@@]3(O)[C@@H]4CCCN4C(=O)[C@H](Cc4ccccc4)N3C2=O)C[C@@H]2c3cccc4[nH]cc(c34)C[C@H]21` [DIHYDROERGOTAMINE], the IC50 result is “Not Active” in series [1]; “Not Active” at Progesterone receptor; “Not Active” in series [2]; “Not Active” in series [3]; 2.5 nM in series [4] (read-out: IC50). The inhibition constant Ki result in series [1] was “Not Active”; in series [2] it was “Not Active”; in series [4] (read-out: Ki) it was 1.67 nM.
With `CCOC(=O)C1=C(C)NC(C)=C(C(=O)OC)C1c1cccc(Cl)c1Cl` (centres undefined) [FELODIPINE], the 50% inhibitory concentration (IC50) entry (in series [1]; at Progesterone receptor; in series [2]; in series [3]; in series [4]) was “Not Active” throughout. Moreover, the Ki result in series [1], in series [2] and in series [4] was “Not Active” throughout.
For the compound `CC(C(=O)O)c1ccc(-c2ccccc2)c(F)c1` (centres undefined) [FLURBIPROFEN], the concentration for half-maximal inhibition (IC50) result (in series [1]; in series [2]; in series [3]; in series [4]; on Cytochrome P450 3A4) was “Not Active” throughout. In addition, the inhibition constant Ki entry (in series [1]; in series [2]; in series [4]; at Cytochrome P450 3A4) was “Not Active” throughout.
Take `Cc1cn[nH]c1` [FOMEPIZOLE]: the IC50 entry (in series [1]; at Progesterone receptor; in series [2]; in series [3]; in series [4]) was “Not Active” each time. The inhibition constant Ki result in series [1], in series [2] and in series [4] was “Not Active” in each case.
Take `Cc1cnc(C(=O)NCCc2ccc(S(=O)(=O)NC(=O)NC3CCCCC3)cc2)cn1` [GLIPIZIDE]: the IC50 entry (on Progesterone receptor; in series [2]; in series [3]; in series [4]) was “Not Active” in each case. Moreover, the inhibition constant Ki entry in series [2] and in series [4] was “Not Active” each time.
Regarding `COc1ccccc1OCC(O)CO` (centres undefined) [GUAIFENESIN], the IC50 result (in series [1]; at Progesterone receptor; in series [2]; in series [3]; in series [4]) was “Not Active” in each case. Besides, the Ki result in series [1], in series [2] and in series [4] was “Not Active” throughout.
Turning to `C/C=C\c1ccc(O)c(OC)c1` [ISOEUGENOL], the half-inhibitory concentration (IC50) result (at Progesterone receptor; in series [2]; in series [3]; in series [4]) was “Not Active” in each case. The inhibitory constant (Ki) entry in series [2] and in series [4] was “Not Active” each time.
In the case of `CC[C@H](C)C(=O)O[C@H]1C[C@@H](C)C=C2C=C[C@H](C)[C@H](CC[C@@H]3C[C@@H](O)CC(=O)O3)[C@H]21` [LOVASTATIN], the IC50 result (on Progesterone receptor; in series [2]; in series [3]; in series [4]) was “Not Active” throughout. The inhibition constant Ki result in series [2] and in series [4] was “Not Active” each time.
For the compound `OCCN1CCN(CCCN2c3ccccc3Sc3ccc(Cl)cc32)CC1` [PERPHENAZINE], the IC50 result (on Progesterone receptor; in series [2]; in series [3]; in series [4]) was “Not Active” each time. For the same compound, the Ki result in series [2] and in series [4] was “Not Active” in each case.
